Reference: ChEMBL document CHEMBL4765493, “Berberine Directly Targets the NEK7 Protein to Block the NEK7-NLRP3 Interaction and Exert Anti-inflammatory Activity” (J Med Chem, 2021)
Active and inactive are the calls of the source. The rule behind the calls is not given here.

How the values were obtained:
[1] = Inhibition of LPS + nigericin-induced IL-1beta secretion in PMA-differentiated human THP-1 cells at 20 uM incubated for 24 hrs by ELISA; assay type: functional
[2] = target: T1, Serine/threonine-protein phosphatase PGAM5, mitochondrial (Homo sapiens) (UniProt Q96HS1); assay: Binding affinity to […] in PMA-differentiated human THP-1 cells incubated for 2 hrs by SDS-PAGE and LC-MS/MS analysis; assay type: cell-based
T1 sequence (whole entry): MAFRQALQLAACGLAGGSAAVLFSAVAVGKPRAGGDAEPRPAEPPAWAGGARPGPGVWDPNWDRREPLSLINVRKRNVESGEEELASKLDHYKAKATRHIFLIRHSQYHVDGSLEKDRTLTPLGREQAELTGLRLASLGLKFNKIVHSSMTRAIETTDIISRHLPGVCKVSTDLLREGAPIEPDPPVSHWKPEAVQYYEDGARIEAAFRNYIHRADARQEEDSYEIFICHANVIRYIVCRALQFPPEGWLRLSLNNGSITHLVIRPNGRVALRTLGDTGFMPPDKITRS

[3] = target: Nicotinamide/nicotinic acid mononucleotide adenylyltransferase 1 (Homo sapiens) (UniProt Q9HAN9); assay: Binding affinity to NMNAT1 in PMA-differentiated human THP-1 cells incubated for 2 hrs by SDS-PAGE and LC-MS/MS analysis; assay type: cell-based
[4] = target: T2, Uridine-cytidine kinase 2 (Homo sapiens) (UniProt Q9BZX2); assay: Binding affinity to UCK2 in PMA-differentiated human THP-1 cells incubated for 2 hrs by SDS-PAGE and LC-MS/MS analysis; assay type: cell-based
T2 sequence (whole entry): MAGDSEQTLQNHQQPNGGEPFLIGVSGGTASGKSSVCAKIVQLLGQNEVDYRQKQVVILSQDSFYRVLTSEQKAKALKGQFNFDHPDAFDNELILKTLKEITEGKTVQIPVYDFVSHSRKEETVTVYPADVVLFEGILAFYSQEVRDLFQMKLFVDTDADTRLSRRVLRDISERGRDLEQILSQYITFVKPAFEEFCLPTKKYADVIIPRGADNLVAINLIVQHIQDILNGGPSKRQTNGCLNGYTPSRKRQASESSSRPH

[5] = target: 28S rRNA (cytosine-C(5))-methyltransferase (Homo sapiens) (UniProt Q96P11); assay: Binding affinity to NSUN5 in PMA-differentiated human THP-1 cells incubated for 2 hrs by SDS-PAGE and LC-MS/MS analysis; assay type: cell-based
[6] = target: Serine/threonine-protein kinase Nek7 (Homo sapiens, UniProt Q8TDX7); assay: Binding affinity to NEK7 in PMA-differentiated human THP-1 cells incubated for 2 hrs by SDS-PAGE and LC-MS/MS analysis; assay type: cell-based
[7] = target: DIMT1 dimethyladenosine transferase 1 (Homo sapiens) (UniProt Q9UNQ2); assay: Binding affinity to DIM1 in PMA-differentiated human THP-1 cells incubated for 2 hrs by SDS-PAGE and LC-MS/MS analysis
Chain of DIMT1 dimethyladenosine transferase 1 (Homo sapiens) (Q9UNQ2 whole entry, looked up): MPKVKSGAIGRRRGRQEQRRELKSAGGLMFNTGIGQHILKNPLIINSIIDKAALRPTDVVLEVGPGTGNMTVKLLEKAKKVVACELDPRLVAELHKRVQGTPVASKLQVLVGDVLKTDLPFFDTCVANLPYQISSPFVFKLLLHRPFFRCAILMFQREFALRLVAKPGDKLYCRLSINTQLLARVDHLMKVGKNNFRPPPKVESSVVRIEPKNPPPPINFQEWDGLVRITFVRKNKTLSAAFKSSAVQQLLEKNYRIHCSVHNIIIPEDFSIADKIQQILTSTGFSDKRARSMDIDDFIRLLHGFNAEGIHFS

Chain of Serine/threonine-protein kinase Nek7 (Q8TDX7 whole entry, looked up): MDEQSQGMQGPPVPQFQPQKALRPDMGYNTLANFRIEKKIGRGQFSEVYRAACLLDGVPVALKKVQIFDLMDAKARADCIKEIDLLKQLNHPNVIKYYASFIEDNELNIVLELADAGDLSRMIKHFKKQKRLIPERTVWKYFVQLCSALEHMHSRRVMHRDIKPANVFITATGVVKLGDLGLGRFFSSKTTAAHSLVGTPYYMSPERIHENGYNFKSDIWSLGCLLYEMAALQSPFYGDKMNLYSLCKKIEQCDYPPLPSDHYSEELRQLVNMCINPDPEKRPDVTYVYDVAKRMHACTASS
Chain of Nicotinamide/nicotinic acid mononucleotide adenylyltransferase 1 (Homo sapiens) (Q9HAN9 whole entry): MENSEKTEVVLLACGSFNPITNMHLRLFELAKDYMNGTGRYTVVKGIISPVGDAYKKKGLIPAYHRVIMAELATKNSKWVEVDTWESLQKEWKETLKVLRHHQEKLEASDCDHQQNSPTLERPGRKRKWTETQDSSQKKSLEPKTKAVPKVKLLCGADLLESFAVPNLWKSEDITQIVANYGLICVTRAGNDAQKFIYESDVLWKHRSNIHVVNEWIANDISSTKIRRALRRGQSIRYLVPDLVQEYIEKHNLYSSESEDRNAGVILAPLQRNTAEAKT
Chain of 28S rRNA (cytosine-C(5))-methyltransferase (Homo sapiens) (Q96P11 whole entry): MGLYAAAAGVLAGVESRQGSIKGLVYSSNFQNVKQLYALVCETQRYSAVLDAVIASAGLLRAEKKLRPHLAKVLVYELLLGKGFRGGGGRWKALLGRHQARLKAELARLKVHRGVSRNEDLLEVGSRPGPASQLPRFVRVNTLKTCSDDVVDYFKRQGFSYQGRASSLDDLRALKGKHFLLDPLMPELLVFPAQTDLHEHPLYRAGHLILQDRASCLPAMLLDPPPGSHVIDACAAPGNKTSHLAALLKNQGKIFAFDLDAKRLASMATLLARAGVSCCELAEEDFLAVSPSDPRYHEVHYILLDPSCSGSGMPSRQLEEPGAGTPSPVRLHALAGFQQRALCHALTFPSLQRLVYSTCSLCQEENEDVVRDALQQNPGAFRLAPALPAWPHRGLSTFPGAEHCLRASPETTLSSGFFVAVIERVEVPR

SMILES | inhibition at 20 µM [1] [%] | other results
COc1cc2c(cc1OCCCNC(=O)CCCC[C@@H]1SC[C@@H]3NC(=O)N[C@@H]31)CC[n+]1cc3c(OC)c(OC)ccc3cc1-2 | -49 | 
COc1cc2c(cc1OC)-c1cc3ccc(OC)c(OCCOCCOCCNC(=O)CCCC[C@@H]4SC[C@@H]5NC(=O)N[C@@H]54)c3c[n+]1CC2 | -78 | Activity [2]: inactive; Activity [3]: inactive; Activity [4]: inactive; Activity [5]: inactive; Activity [6]: inactive; Activity [7]: inactive
COc1cc2c(cc1OC)-c1cc3ccc(OC)c(OCCCCCNC(=O)CCCC[C@@H]4SC[C@@H]5NC(=O)N[C@@H]54)c3c[n+]1CC2 | 77 | 
COc1ccc2cc3[n+](cc2c1OCCCNC(=O)CCCC[C@@H]1SC[C@@H]2NC(=O)N[C@@H]21)CCc1cc2c(cc1-3)OCO2 | -92 | 
COc1c(OCCOCCNC(=O)CCCC[C@@H]2SC[C@@H]3NC(=O)N[C@@H]32)ccc2cc3[n+](cc12)CCc1cc2c(cc1-3)OCO2 | 26 | 
C#CCOCCOc1cc(C2(C(F)(F)F)N=N2)ccc1C(=O)NCCOCCOCCOc1ccc2cc3[n+](cc2c1OC)CCc1cc2c(cc1-3)OCO2 | 80 | 
COc1c(OCCCCCNC(=O)CCCC[C@@H]2SC[C@@H]3NC(=O)N[C@@H]32)ccc2cc3[n+](cc12)CCc1cc2c(cc1-3)OCO2 | 73 | 
COc1ccc2cc3[n+](cc2c1OCCCCCNC(=O)CCCC[C@@H]1SC[C@@H]2NC(=O)N[C@@H]21)CCc1cc2c(cc1-3)OCO2 | -2 | 
COc1ccc2cc3[n+](cc2c1OCCOCCOCCNC(=O)CCCC[C@@H]1SC[C@@H]2NC(=O)N[C@@H]21)CCc1cc2c(cc1-3)OCO2 | 16 | 
COc1cc2c(cc1OCCOCCNC(=O)CCCC[C@@H]1SC[C@@H]3NC(=O)N[C@@H]31)CC[n+]1cc3c(OC)c(OC)ccc3cc1-2 | 75 | 
